According to PubChem BioAssay AID2060900 (Molecular Pharmacology Branch, DTP, NCI, 2025):

Test system: 521955-158-R2-J5-PDC complex spheroids, viability
Assay: Anticancer human tumor 521955-158-R2-J5-PDC patient-derived pancreatic carcinoma cell line growth inhibition [RAS]
Conditions: for IC50: curve of first compound; for viability, T/C: stronger effect = lower value
How it was run: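 Multi-cell-type spheroids: tumor cells plus HUVEC endothelial cells and mesenchymal stem cells. RAS-pathway inhibitors were combined with targeted agents, each dosed in half-log steps down from clinical Cmax, or from 10 microM when Cmax was unknown.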

[1] = second compound 0.0316 µM, first compound 0.0316 µM
[2] = second compound 0.0316 µM, first compound 0.1 µM
[3] = second compound 0.0316 µM, first compound 0.316 µM
[4] = second compound 0.0316 µM, first compound 1 µM
[5] = second compound 0.0316 µM, first compound 3.16 µM
[6] = second compound 0.0316 µM, first compound 10 µM
[7] = second compound 0.1 µM, first compound 0.0316 µM
[8] = second compound 0.1 µM, first compound 0.1 µM
[9] = second compound 0.1 µM, first compound 0.316 µM
[10] = second compound 0.1 µM, first compound 1 µM
[11] = second compound 0.1 µM, first compound 3.16 µM
[12] = second compound 0.1 µM, first compound 10 µM
[13] = second compound 0.316 µM, first compound 0.0316 µM
[14] = second compound 0.316 µM, first compound 0.1 µM
[15] = second compound 0.316 µM, first compound 0.316 µM
[16] = second compound 0.316 µM, first compound 1 µM
[17] = second compound 0.316 µM, first compound 3.16 µM
[18] = second compound 0.316 µM, first compound 10 µM
[19] = second compound 1 µM, first compound 0.0316 µM
[20] = second compound 1 µM, first compound 0.1 µM
[21] = second compound 1 µM, first compound 0.316 µM
[22] = second compound 1 µM, first compound 1 µM
[23] = second compound 1 µM, first compound 3.16 µM
[24] = second compound 1 µM, first compound 10 µM
[25] = second compound 3.16 µM, first compound 0.0316 µM
[26] = second compound 3.16 µM, first compound 0.1 µM
[27] = second compound 3.16 µM, first compound 0.316 µM
[28] = second compound 3.16 µM, first compound 1 µM
[29] = second compound 3.16 µM, first compound 3.16 µM
[30] = second compound 3.16 µM, first compound 10 µM
[31] = second compound 10 µM, first compound 0.0316 µM
[32] = second compound 10 µM, first compound 0.1 µM
[33] = second compound 10 µM, first compound 0.316 µM
[34] = second compound 10 µM, first compound 1 µM
[35] = second compound 10 µM, first compound 3.16 µM
[36] = second compound 10 µM, first compound 10 µM
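Further: compound exposure lasted seven days before the viability read.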
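Wherever viability, T/C is given: spheroids also contain HUVEC endothelial cells and mesenchymal stem cells as stroma.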

**Q.** What does the source list for `CCC(CC)c1cc(NC2CCC(N)C2)n2nccc2n1` (centres undefined) + C#Cc1c(F)ccc2cc(O)cc(-c3ncc4c(N5CC6CCC(C5)N6)nc(OCC56CCCN5CC(F)C6)nc4c3F)c12?
**A.** IC50 (second compound 0.0316 µM): 1370 nM; IC50 (second compound 0.1 µM): 1160 nM; IC50 (second compound 0.316 µM): 1080 nM; IC50 (second compound 1 µM): 737 nM; IC50 (second compound 3.16 µM): 935 nM; IC50 (second compound 10 µM): 31.6 nM; viability, T/C [1]: 62.2%; viability, T/C [2]: 56%; viability, T/C [3]: 68.2%; viability, T/C [4]: 77.6%; viability, T/C [5]: 5.12%; viability, T/C [6]: 10.6%; viability, T/C [7]: 51.8%; viability, T/C [8]: 59.7%; viability, T/C [9]: 65.7%; viability, T/C [10]: 55.8%; viability, T/C [11]: 8.07%; viability, T/C [12]: 12.2%; viability, T/C [13]: 56.4%; viability, T/C [14]: 72.5%; viability, T/C [15]: 56.3%; viability, T/C [16]: 53%; viability, T/C [17]: 7.76%; viability, T/C [18]: 12.5%; viability, T/C [19]: 47.6%; viability, T/C [20]: 54.1%; viability, T/C [21]: 64%; viability, T/C [22]: 48.1%; viability, T/C [23]: 7.46%; viability, T/C [24]: 10.2%; viability, T/C [25]: 53.8%; viability, T/C [26]: 61.7%; viability, T/C [27]: 52.2%; viability, T/C [28]: 49.7%; viability, T/C [29]: 4.58%; viability, T/C [30]: 13.5%; viability, T/C [31]: 46%; viability, T/C [32]: 51.2%; viability, T/C [33]: 45%; viability, T/C [34]: 33%; viability, T/C [35]: 4.49%; viability, T/C [36]: 9.43%

**Q.** How did the IC50 (second compound 0.0316 µM) turn out when `Cc1nc(N2CCC3(CC2)COC(C)C3N)c(CO)nc1Sc1ccnc(N)c1Cl` (centres undefined) + C#Cc1c(F)ccc2cc(O)cc(-c3ncc4c(N5CC6CCC(C5)N6)nc(OCC56CCCN5CC(F)C6)nc4c3F)c12 was run?
**A.** The IC50 was 598 nM.

**Q.** And the IC50 (second compound 0.1 µM)?
**A.** The IC50 was 177 nM.

**Q.** What about the IC50 (second compound 0.316 µM) of the same molecule?
**A.** Its IC50 is 115 nM.

**Q.** What about the IC50 (second compound 1 µM) of the same molecule?
**A.** The IC50 was less than 31.6 nM.

**Q.** What about the IC50 (second compound 3.16 µM) of the same molecule?
**A.** Its IC50 is less than 31.6 nM.

**Q.** What about the IC50 (second compound 10 µM) of the same molecule?
**A.** The IC50 was less than 31.6 nM.

**Q.** What about the viability, T/C [1] of the same molecule?
**A.** The viability, T/C was 50.1%.

**Q.** And the viability, T/C [2]?
**A.** Its viability, T/C is 63.7%.

**Q.** What about the viability, T/C [3] of the same molecule?
**A.** The viability, T/C was 60.6%.

**Q.** And the viability, T/C [4]?
**A.** The viability, T/C was 43.5%.

**Q.** And the viability, T/C [5]?
**A.** The viability, T/C was 42.3%.

**Q.** And the viability, T/C [6]?
**A.** The viability, T/C was 37.4%.

**Q.** What about the viability, T/C [7] of the same molecule?
**A.** Its viability, T/C is 61.1%.

**Q.** And the viability, T/C [8]?
**A.** The viability, T/C was 58.3%.

**Q.** And the viability, T/C [9]?
**A.** Its viability, T/C is 41.9%.

**Q.** And the viability, T/C [10]?
**A.** Its viability, T/C is 37.6%.

**Q.** And the viability, T/C [11]?
**A.** The viability, T/C was 39.7%.

**Q.** What about the viability, T/C [12] of the same molecule?
**A.** Its viability, T/C is 28.2%.

**Q.** And the viability, T/C [13]?
**A.** Its viability, T/C is 63.1%.

**Q.** And the viability, T/C [14]?
**A.** Its viability, T/C is 46.2%.

**Q.** And the viability, T/C [15]?
**A.** Its viability, T/C is 44.1%.

**Q.** And the viability, T/C [16]?
**A.** The viability, T/C was 37.7%.

**Q.** What about the viability, T/C [17] of the same molecule?
**A.** Its viability, T/C is 27.2%.

**Q.** What about the viability, T/C [18] of the same molecule?
**A.** Its viability, T/C is 24%.

**Q.** What about the viability, T/C [19] of the same molecule?
**A.** Its viability, T/C is 45.3%.

**Q.** And the viability, T/C [20]?
**A.** The viability, T/C was 42.9%.

**Q.** And the viability, T/C [21]?
**A.** Its viability, T/C is 39.3%.

**Q.** And the viability, T/C [22]?
**A.** The viability, T/C was 30.7%.

**Q.** And the viability, T/C [23]?
**A.** Its viability, T/C is 33.2%.

**Q.** What about the viability, T/C [24] of the same molecule?
**A.** The viability, T/C was 22.9%.

**Q.** What about the viability, T/C [25] of the same molecule?
**A.** The viability, T/C was 37.1%.

**Q.** And the viability, T/C [26]?
**A.** The viability, T/C was 39.7%.

**Q.** What about the viability, T/C [27] of the same molecule?
**A.** Its viability, T/C is 34.4%.

**Q.** And the viability, T/C [28]?
**A.** The viability, T/C was 28.3%.

**Q.** What about the viability, T/C [29] of the same molecule?
**A.** The viability, T/C was 19%.

**Q.** And the viability, T/C [30]?
**A.** The viability, T/C was 20.1%.

**Q.** And the viability, T/C [31]?
**A.** Its viability, T/C is 48.7%.

**Q.** What about the viability, T/C [32] of the same molecule?
**A.** The viability, T/C was 28.2%.

**Q.** And the viability, T/C [33]?
**A.** The viability, T/C was 21.3%.

**Q.** And the viability, T/C [34]?
**A.** The viability, T/C was 18.5%.

**Q.** What about the viability, T/C [35] of the same molecule?
**A.** The viability, T/C was 13.7%.

**Q.** And the viability, T/C [36]?
**A.** Its viability, T/C is 5%.
